According to ChEMBL document CHEMBL3585340, “Potent Apoptotic Response Induced by Chloroacetamidine Anthrathiophenediones in Bladder Cancer Cells” (J Med Chem, 2015):
Active and inactive are the calls of the source. The calls are words filed in the database; no cut-off is given here.

Tests used:
[1] = Cytotoxicity against human T24 cells harboring HRAS mutant assessed as reduction of metabolic activity after 72 hrs by resazurin assay; assay type: functional, cell-based; details: T-24, 72 h
[2] = test system: HEK293; experiment: Cytotoxicity against HEK293 cells harboring wild type HRAS assessed as reduction of metabolic activity after 72 hrs by resazurin assay; assay type: cell-based; details: Homo sapiens, HEK293, 72 h
[3] = Cellular uptake in human T24 cells at 1 to 5 uM after 4 hrs by FACS analysis; assay type: ADME, cell-based; details: t-24, 4 h
[4] = Cellular uptake in human T24 cells at 5 uM at 4 degC after 4 hrs by FACS analysis; assay type: ADME, cell-based; details: t-24, 4 h
[5] = Cellular uptake in human T24 cells at 5 uM at 37 degC after 4 hrs by FACS analysis; assay type: ADME, cell-based; details: t-24, 4 h
[6] = Cellular uptake in human T24 cells at 5 uM after 4 hrs by FACS analysis relative to HEK293 cells; assay type: ADME, cell-based; details: hek293, 4 h
[7] = Cellular uptake in human T24 cells at 5 uM after 4 hrs by FACS analysis in presence of dynasore; assay type: ADME, cell-based; details: t-24, 4 h
[8] = Cellular uptake in cytoplasm of human T24 cells at 5 uM after 4 hrs by confocal microscopic analysis; assay type: ADME, cell-based; details: t-24, 4 h
[9] = Cellular uptake in nucleus of human T24 cells at 5 uM after 4 hrs by confocal microscopic analysis; assay type: ADME, cell-based; details: t-24, 4 h
[10] = Binding affinity to 5' FAM/3' TAMRA labeled HRAS1 G-quadruplex DNA (unknown origin) by FRET analysis
[11] = Binding affinity to 5' FAM/3' TAMRA labeled HRAS2 G-quadruplex DNA (unknown origin) by FRET analysis
[12] = Binding affinity to 5' FAM/3' TAMRA labeled HRAS1 G-quadruplex DNA (unknown origin) assessed as change in melting temperature by FRET analysis
[13] = Binding affinity to 5' FAM/3' TAMRA labeled HRAS2 G-quadruplex DNA (unknown origin) assessed as change in melting temperature by FRET analysis
[14] = Binding affinity to 5' FAM/3' TAMRA labeled HRAS2 G-quadruplex DNA (unknown origin) assessed as change in melting temperature at 5 equiv of compound by FRET analysis in presence of 10 fold excess duplex DNA (reference value: 68.1 degreeC)
[15] = test system: T-24; experiment: Inhibition of HRAS mRNA expression in human T24 cells assessed as remaining mRNA level at 5 uM after 6 hrs by RT-qPCR analysis relative to beta2-microglobulin mRNA expression; assay type: functional
[16] = test system: T-24; experiment: Inhibition of HRAS mRNA expression in human T24 cells assessed as remaining mRNA level at 5 uM after 24 hrs by RT-qPCR analysis relative to beta2-microglobulin mRNA expression; assay type: functional
[17] = Downregulation of p21RAS protein level in human T24 cells assessed as remaining protein level at 5 uM after 48 hrs by Western blot analysis relative to beta-actin protein expression; assay type: functional, cell-based; details: T-24
[18] = test system: T-24; experiment: Cytotoxicity against human T24 cells assessed as reduction of colony formation at 1 uM after 7 days by methylene blue staining-based assay; assay type: functional, cell-based
[19] = test system: T-24; experiment: Induction of apoptosis in human T24 cells assessed as PARP-1 cleavage at 2.5 uM measured at 48 hrs by Western blot analysis relative to control; assay type: functional
[20] = test system: T-24; experiment: Induction of apoptosis in human T24 cells assessed as activation of caspase 3/7 at 2.5 to 5 uM measured after 18 to 24 hrs by Apo-ONE assay relative to control; assay type: functional
[21] = test system: T-24; experiment: Induction of apoptosis in human T24 cells at 2.5 uM after 24 hrs by annexin V-FITC/propidium iodide staining-based FACS analysis (13 +/- 5%); assay type: functional
[22] = test system: T-24; experiment: Induction of reactive oxygen species generation in human T24 cells at 1 to 5 uM after 24 hrs relative to control; assay type: functional, cell-based
[23] = Cell cycle arrest in human T24 cells assessed as accumulation at G2 phase at 5 uM after 48 hrs by propidium iodide staining-based FACS analysis (reference value: 18.5%); assay type: functional; details: T-24
[24] = Cell cycle arrest in human T24 cells assessed as accumulation at G1 phase at 5 uM after 48 hrs by propidium iodide staining-based FACS analysis (reference value: 52.4%); assay type: functional; details: T-24
[25] = Cell cycle arrest in human T24 cells assessed as accumulation at G2 phase at 5 uM measured at 72 hrs by propidium iodide staining-based FACS analysis (reference value: 17.7%); assay type: functional; details: T-24
[26] = Downregulation of cyclin D1 level in human T24 cells assessed as remaining protein level at 2.5 uM after 48 hrs by Western blot analysis; assay type: functional, cell-based; details: T-24
[27] = Binding affinity to 5' FAM/3' TAMRA labeled HRAS2 G-quadruplex DNA (unknown origin) assessed as change in melting temperature at 5 equiv of compound (r = 5) by FRET analysis (reference value: 68.1 degreeC)
[28] = Downregulation of p21RAS protein level in human T24 cells assessed as remaining protein level at 2.5 to 5 uM after 48 hrs by Western blot analysis relative to beta-actin protein expression; assay type: functional, cell-based; details: T-24
[29] = test system: T-24; experiment: Binding affinity to wild type HRAS G-quadruplex DNA (unknown origin) transfected in human T24 cells assessed as remaining expression ratio of firefly luciferase to renila luciferase reporter gene at 100 to 200 nM pretreated with cells followed by transfection measured after 48 hrs; assay type: cell-based
[30] = test system: T-24; experiment: Binding affinity to mutant HRAS Mut-A plasmid (unknown origin) transfected in human T24 cells at 100 to 200 nM pretreated with cells followed by transfection measured after 48 hrs by dual luciferase reporter gene assay; assay type: cell-based
[31] = test system: T-24; experiment: Binding affinity to mutant HRAS Mut-B plasmid (unknown origin) transfected in human T24 cells at 100 to 200 nM pretreated with cells followed by transfection measured after 48 hrs by dual luciferase reporter gene assay; assay type: cell-based
[32] = test system: T-24; experiment: Antitumor activity against human T24 cells xenografted in nude mouse assessed as tumor growth inhibition at 1.7 mg/kg administered intratumorally on day 1, 8, 15, 22 measured every 2 to 3 days up to 44 days; assay type: functional, organism-based
[33] = Antitumor activity against human T24 cells xenografted in nude mouse assessed as mouse median survival day at 1.7 mg/kg administered intratumorally on day 1, 8, 15, 22 (reference value: 32 days); assay type: functional, T-24
[34] = Antitumor activity against human T24 cells xenografted in nude mouse assessed as increase in mouse median survival day at 1.7 mg/kg administered intratumorally on day 1, 8, 15, 22 relative to control; assay type: functional, T-24
[35] = Binding affinity to 5' FAM/3' TAMRA labeled HRAS2 G-quadruplex DNA (unknown origin) assessed as change in melting temperature at 10 equiv of compound by FRET analysis (reference value: 67.2 degreeC)
[36] = Downregulation of p21RAS protein level in human T24 cells at 5 uM after 48 hrs by Western blot analysis; assay type: functional, cell-based; details: T-24
[37] = test system: T-24; experiment: Inhibition of HRAS mRNA expression in human T24 cells at 5 uM after 6 to 24 hrs by RT-qPCR analysis; assay type: functional, cell-based
[38] = Cell cycle arrest in human T24 cells assessed as accumulation at G2 phase at 5 uM after 48 to 72 hrs by propidium iodide staining-based FACS analysis; assay type: functional; details: T-24

Row | SMILES | IC50 [1] [nM] | IC50 [2] [nM] | Drug uptake [3] | Drug uptake [4] | Drug uptake [5] | fold change (FC) [6] | Drug uptake [8] | Drug uptake [9] | Kd [10] [nM] | Kd [11] [nM] | ΔTm [12] [°C] | ΔTm [13] [°C] | Activity [18] | Activity [19] | Activity [21] [%] | other results
1 | N=C(CCl)NCCCNc1c2c(c(NCCNC(=N)CCl)c3sccc13)C(=O)c1ccccc1C2=O | 3000 | 12600 | Active | Not Active | Active | 2 | Active | Active | 178 | 168 | 9 | 7 | Active | 80% | 81 | Drug uptake [7]: Not Active; Tm [14]: 75.8 °C; Activity [15]: 45%; Activity [16]: 24%; Activity [17]: 40%; fold change (FC) [20]: 15; Activity [22]: inactive; Activity [23]: 66%; Activity [24]: 28.9%; Activity [25]: 83%; Activity [26]: < 10%; Tm [27]: 75.8 °C
2 | N=C(CCl)NCCNc1c2c(c(NCCNC(=N)CCl)c3sccc13)C(=O)c1ccccc1C2=O | 2700 | 6400 | Active | Not Active | Active | 2 | Active | Active | 611 | 317 | 9 | 7 | Active | 80% | 88 | Drug uptake [7]: Not Active; Tm [14]: 75.6 °C; Activity [28]: < 4%; Activity [15]: 35%; Activity [16]: 34%; Activity [29]: 40%; Activity [30]: inactive; Activity [31]: inactive; fold change (FC) [20]: 15; Activity [22]: inactive; Activity [23]: 72.2%; Activity [24]: 12.2%; Activity [25]: 44.7%; Activity [26]: < 10%; TGI [32]: Active; MSD [33]: 54 days; Activity [34]: 70%; Tm [27]: 75.6 °C; Tm [35]: 78.5 °C
3 | N=C(CCl)NCCCCNc1c2c(c(NCCCCNC(=N)CCl)c3sccc13)C(=O)c1ccccc1C2=O | 11500 | > 30000 | Active | – | – | 2 | Active | Active | 231 | 215 | 9 | 7 | – | – | – | –
4 | N=C(N)NCCCCNc1c2c(c(NCCCCNC(=N)N)c3sccc13)C(=O)c1ccccc1C2=O | – | > 30000 | Active | – | – | – | – | – | – | – | – | – | inactive | inactive | 13 | Activity [36]: Active; inhibition [37]: inactive; Activity [38]: inactive
5 | N=C(CCl)NCCCNc1c2c(c(NCCCNC(=N)CCl)c3sccc13)C(=O)c1ccccc1C2=O | 6800 | 19400 | Active | – | – | 2 | Active | Active | 260 | 276 | 9 | 7 | – | – | – | –
6 | N=C(CCl)NCCCNc1c2c(c(NCCNC(=N)CCl)c3ccsc13)C(=O)c1ccccc1C2=O | 2900 | 10100 | Active | Not Active | Active | 2 | Active | Active | 179 | 221 | 9 | 7 | – | – | – | –
7 | N=C(N)NCCNc1c2c(c(NCCNC(=N)N)c3sccc13)C(=O)c1ccccc1C2=O | 4400 | > 30000 | Active | – | – | – | – | – | – | – | – | – | inactive | inactive | 13 | Activity [36]: Active; inhibition [37]: inactive; Activity [20]: inactive; Activity [38]: inactive
